The results in this text go back to article PMC11356571, “The Comparative Metabolism of a Novel Hepatocellular Carcinoma Therapeutic Agent, 2,3-Diamino-N-(4-(benzo[d]thiazol-2-yl)phenyl)propanamide, in Human and Animal Hepatocytes” (Metabolites, 2024).

Each structure is given as a SMILES string.

For one data set, the target named is T1, CES1b (Homo sapiens, UniProt P23141).
T1 construct: purchased Corning Life Sciences (Woburn, MA, USA)
T1 sequence (P23141 18-567): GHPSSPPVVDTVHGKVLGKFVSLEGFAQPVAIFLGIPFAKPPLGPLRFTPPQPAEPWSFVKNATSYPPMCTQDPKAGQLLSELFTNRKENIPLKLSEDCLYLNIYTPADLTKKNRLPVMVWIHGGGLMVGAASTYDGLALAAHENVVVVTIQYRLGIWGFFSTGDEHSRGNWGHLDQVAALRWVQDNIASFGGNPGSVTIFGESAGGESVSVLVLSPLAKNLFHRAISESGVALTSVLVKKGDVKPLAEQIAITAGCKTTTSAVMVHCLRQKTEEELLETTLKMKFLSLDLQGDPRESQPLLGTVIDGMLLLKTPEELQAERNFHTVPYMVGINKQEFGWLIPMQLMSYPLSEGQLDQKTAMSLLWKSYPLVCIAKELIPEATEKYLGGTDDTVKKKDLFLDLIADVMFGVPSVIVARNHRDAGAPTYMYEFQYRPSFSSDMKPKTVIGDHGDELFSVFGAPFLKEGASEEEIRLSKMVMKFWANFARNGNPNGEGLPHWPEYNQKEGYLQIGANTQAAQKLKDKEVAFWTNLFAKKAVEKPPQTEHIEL
In words: Incubation with human recombinant CES1b. It counts as in vitro ADME. To be noted: 60 min at 37 °C, ETN101 10 μM or M1 1 μM. The method, then:
To screen for CES enzymes responsible for the hydrolysis of ETN101 or M1, 50 μL of reaction mixtures containing human cDNA-expressed CES enzymes (CES1b, CES1c, and CES2) at the concentration of 1 mg/mL, 10 μM ETN101, or 1 μM M1 in 0.1 M potassium phosphate buffer were incubated at 37 °C for 0 min or 60 min in triplicate. The reactions were quenched by adding 50 μL of ice-cold acetonitrile containing the internal standard (camptothecin, 10 μg/mL). Following centrifugation at 13,000 rpm for 5 min, a 2 μL aliquot of the supernatant was injected into the LC-MS/MS system.
The mobile phases comprised 0.1% (v/v) formic acid in water (mobile phase A) and 0.1% formic acid (v/v) in acetonitrile (mobile phase B). […] The column and auto-sampler were maintained at 40 °C and 4 °C, respectively. ETN101, M1, and M2 were detected via MRM using ESI in the positive mode. […] Mass Hunter software (Agilent Technologies) was used to control the LC-MS/MS instrument and for data processing.

The next data set deals with T2, CYP2B6 (Homo sapiens, UniProt P20813).
T2 construct: purchased Cypex Ltd. (Dundee, UK)
T2 sequence (P20813 1-491): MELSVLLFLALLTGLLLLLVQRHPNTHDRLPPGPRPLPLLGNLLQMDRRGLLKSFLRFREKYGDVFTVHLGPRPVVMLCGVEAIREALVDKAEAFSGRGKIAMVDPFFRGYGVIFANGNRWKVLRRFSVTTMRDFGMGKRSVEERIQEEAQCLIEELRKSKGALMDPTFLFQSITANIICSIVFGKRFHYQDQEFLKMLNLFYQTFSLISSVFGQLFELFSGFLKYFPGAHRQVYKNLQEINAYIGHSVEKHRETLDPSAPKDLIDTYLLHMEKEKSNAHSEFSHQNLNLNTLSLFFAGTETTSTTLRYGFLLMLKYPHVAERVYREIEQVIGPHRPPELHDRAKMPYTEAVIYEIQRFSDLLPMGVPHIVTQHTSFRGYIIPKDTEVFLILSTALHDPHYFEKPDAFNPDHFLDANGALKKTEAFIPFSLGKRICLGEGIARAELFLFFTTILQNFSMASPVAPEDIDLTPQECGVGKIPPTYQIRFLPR
As to the kind of experiment: Incubation with human cDNA-expressed CYP2B6. It counts as in vitro ADME. To be noted: CYP2B6, 30 min at 37 °C with NADPH; ETN101 10 μM or M1 1 μM. The method, then:
ETN101 or M1 was incubated with nine human cDNA-expressed CYP enzymes (1A2, 2A6, 2B6, 2C8, 2C9, 2C19, 2D6, 2E1, and 3A4) to identify the CYPs involved in the metabolism of ETN101. Based on the preliminary study, the incubation conditions were determined as follows: Briefly, reaction mixtures of 50 μL containing ETN101 (final concentration: 10 μM) or M1 (final concentration: 1 μM), and CYPs (final amount: 5 pmol for CYP1A2, 2A6, 2C8, 2C9, 2C19, 2D6, and 3A4; 10 pmol for CYP2B6 and 2E1) were prepared in 0.1 M potassium phosphate buffer. The reaction was initiated by adding 50 μL of NADPH- regenerating system; the mixtures were incubated for 0 min or 30 min at 37 °C in triplicate. Reactions were terminated by the addition of 100 μL of ice-cold acetonitrile containing the IS (camptothecin, 200 ng/mL). Samples were centrifuged at 13,000 rpm for 5 min at 4 °C. An aliquot of 2 μL supernatant was injected in LC–MS/MS system.
For enzyme characterization, an Agilent 6460 triple quadrupole mass spectrometer coupled with a 1260 HPLC system (Agilent Technologies, Santa Clara, CA, USA) and a Kinetex Halo® C18 column (2.7 μm, 2.1 × 50 mm, Advanced Material Technology, Wilmington, DE, USA) were used for chromatographic separation. […] ETN101, M1, and M2 were detected via MRM using ESI in the positive mode. […]

For `NCC(N)C(=O)Nc1ccc(-c2nc3ccccc3s2)cc1` (stereo not shown) [ETN101, 2,3-diamino-N-(4-(benzo[d]thiazol-2-yl)phenyl)propanamide], the Percentage remaining at CES1b was 98.6%; on CYP2B6, 92.8%.
Turning to `Nc1ccc(-c2nc3ccccc3s2)cc1` [M1, 2-(4-aminophenyl)benzothiazole], the figures for the Percentage remaining on CES1b and at CYP2B6 were 99.6% and 109.8%, respectively.
